Source: patent US4117139A, “Medicated compound for treating allergic diseases” (priority 1973, dated 1978)
Where a name gives a salt, the structure may show the parent alone.

Experiments:
[1] = system: ophthalmic response (hyperemia and chemosis) caused by histamine; test: Ophthalmic response to histamine instilled into conjunctival sac of guinea pigs; type: in vivo
[2] = system: general state and behaviour of animals; test: General state and behaviour after single medication; type: in vivo, mice, rats, guinea pigs, cats and dogs; conditions: different modes, versus dimedrol and diprasine
[3] = system: bronchoconstricting action of histamine; test: Histamine bronchoconstriction in narcotized guinea pigs (Concette-Rossler method); type: in vivo; conditions: intravenous, 0.1 to 0.2 mg/kg
Description: As to the mechanism of its action, the medicated compound of the present invention represents an antagonist to histamine liberated in antigen-antibody reactions.

central nervous system [4] = test: Central nervous system effects in test animals; type: in vivo; conditions: mice, rats, rabbits, cats; different modes of administration
[5] = system: heart-vascular system, digestive tract, and excretory organs; test: Pharmacological and toxicological studies: heart-vascular system, digestive tract, excretory organs; conditions: in vivo
[6] = Embryotoxicity / teratogenicity in pregnant rats; type: in vivo; conditions: per os, single doses 3/4 of LD50, various periods of pregnancy
central nervous system [7] = test: Depressive effect on the central nervous system; conditions: in vivo
Description: The majority of modern anti-histamine medicines reveal a strong sedative effect, whereby their administration is substantially limited in the ambulatory treatment, especially in the case of persons engaged in intellectual pursuits, or persons whose occupation requires quick physical and psychic responses, e.g. drivers of transport vehicles.

[8] = system: intoxication caused by histamine aerosol; test: Histamine aerosol intoxication in guinea pigs; type: in vivo; conditions: in the stomach, 30 to 50 mg/kg, spraying 300 seconds
[9] = system: foot edema caused by serotonin; test: Rat foot edema caused by subplantar serotonin; type: in vivo, rats
Description: (§1) The medicated compound of the present invention irrespectively of the medication mode exerts anti-edemic antianaphylactic action.

[10] = Acute toxicity in guinea pigs; type: in vivo
bronchial asthma = test: Clinical test: bronchial asthma; type: in vivo; conditions: patients
Description: (§2) The medicated compound of the present invention was clinically tested on 250 patients aging from 18 to 70 years suffering from allergic diseases for a period of from 3 months to 10 years, and treated with various anti-histamine medicines.
(§3) The medicated compound of the present invention was used for the treatment of acute and chronic urticaria, hay fever, Quincke's oedema, dermal itch, chronic eczema, polysyndromic phenomena of intolerance (arthropathy, eosinophilia, temperature increase), dermatoblepharoconjunctivitis, and bronchial-asthma.

[11] = system: hypotensive activity of intravenously injected histamine; test: Hypotensive activity of intravenous histamine in narcotized cats; type: in vivo; conditions: 0.2 to 0.5 mg/kg, histamine 1 mcg/kg i.v.
[12] = Repeated administration to rats; type: in vivo
[13] = system: foot edema caused by formalin; test: Rat foot edema caused by subplantar formalin; type: in vivo, rats; conditions: 25 mg/kg intraperitoneally and 50 mg/kg in the stomach; formalin 0.2 ml of 2% solution; P over 0.05
Description: as §1

Acute toxicity in rats = conditions: rat, in vivo, po, in the stomach
Acute toxicity in mice = conditions: mouse, in vivo
[14] = system: dermatoblepharonconjunctivitis and some other allergic ophthalmic diseases; test: Clinical test: dermatoblepharoconjunctivitis and other allergic ophthalmic diseases; type: in vivo, patients
Experimental: as §2
(§4) In the case of dermatoblepharonconjunctivitis and some other allergic ophthalmic diseases, the medicated compound of the present invention was administered per os (one tablet of 0.025 g 3 to 4 times per day).

[15] = system: chronic aseptic inflammation; test: Chronic aseptic inflammation by hypodermical implantation of wool balls to rats; type: in vivo; conditions: hypodermically, 25 mg/kg
allergic diseases = test: Clinical test on patients suffering from allergic diseases; type: in vivo
Description: as §2
The treatment with the medicated compound of the present invention was effected in allergological surgeries under ambulatory and stationary conditions.
The majority of the stationary patients were hospitalized with serious, or lasting allergic responses and frequently with accompanying diseases of the heart-vascular system, and digestive tract.
as §3, §4
The medicated compound of the present invention was used individually (without an additional desensibilizing therapy) per os in a dose of from 3 to 6 tablets (0.025 g each) per day, usually directed after eating.

Clinical tolerability = type: in vivo, patients
Description: as §2
However, with the patients over 60 years of age, or those weakened by accompanying serious diseases, some cases of a "seductive" effect of the medicated compound of the present invention were noticed.

[16] = system: bronchospasm caused by acetylcholine; test: Bronchospasm caused by acetylcholine; conditions: in vivo
[17] = system: anaphylactic response caused by ovalbumin; test: Anaphylactic response to ovalbumin aerosol in actively sensibilized guinea pigs; conditions: 25 mg/kg intraperitoneally and 50 mg/kg in stomach; 25% ovalbumin aerosol, 10 minutes
[18] = system: bronchospasm caused by serotonine (5-hydroxytriptamine); test: Bronchospasm caused by serotonine; conditions: in vivo
[19] = system: foot edema caused by dextrane; test: Rat foot edema caused by subplantar dextrane; type: in vivo, rats; conditions: 25 mg/kg intraperitoneally and 50 mg/kg in the stomach; dextrane 0.1 ml of 6% solution; P over 0.05
Description: as §1

[20] = Acute toxicity, diprasine, intravenous; conditions: intravenously
[21] = rats, in the stomach, 22 times, 1/4 of LD50

Question: For `CN(C)CCOC(c1ccccc1)c1ccccc1` [dimedrol, diphenhydramine hydrochloride, reference compound], which “effect on ophthalmic response” value ([1]; similar experiments, compared with the medicated compound) is on record?
Answer: Its value is “much less pronounced”.

Question: With `OC(c1ccccc1)(c1ccccc1)C1CN2CCC1CC2` (centres unmarked) [(quinuclidyl-3)-diphenylcarbinol hydrochloride] as the compound, how does the “influence on general state and behaviour of animals” value [2] read?
Answer: Its value is “to a considerably lesser extent than dimedrol (diphenhydramine) and especially diprasine (promethasine)”.

Question: And the “bronchoconstricting action of histamine” value [3]?
Answer: The value was “weakens, or inhibits the bronchoconstricting action of histamine”.

Question: And the “action of various hypnotics” value (central nervous system [4])?
Answer: Its value is “does not extend the action of various hypnotics”.

Question: And the “influence on latent period of conditioned reflexes” value (central nervous system [4])?
Answer: Its value is “nor has it any influence”.

Question: What about the “influence on spontaneous motor activity” value (central nervous system [4]) of the same compound?
Answer: Its value is “no influence”.

Question: What about the “influence on summation ability of the central nervous system” value (central nervous system [4]) of the same compound?
Answer: The value was “no influence”.

Question: And the “influence on heart-vascular system, digestive tract, and excretory organs” value [5]?
Answer: Its value is “only a relatively slight influence”.

Question: And the “embriotoxic or teratogenic effects” value [6]?
Answer: Its value is “does not exert any embriotoxic or teratogenic effects”.

Question: What about the “depressive effect on the central nervous system” value (central nervous system [7]) of the same compound?
Answer: The value was “does not exert a depressive effect on the central nervous system”.

Question: And the “protection from intoxication (dispnea, apnoea, clono-tonic spasm)” value [8]?
Answer: The value was “completely protects the animals”.

Question: What about the “reduction of foot edema of hind limb, serotonin” value ([9]; 25 mg/kg intraperitoneally and 50 mg/kg in the stomach, serotonin 5 mcg, P over 0.05) of the same compound?
Answer: Its value is “more than 2 times”.

Question: What about the “anti-edemic efficiency relative to dimedrol and diprasine” value ([9]; rat foot edema (serotonin, formalin, dextrane)) of the same compound?
Answer: The value was “more efficient than dimedrol, and more active than diprasine (promethasine)”.

Question: And the absolute lethal dose [10]?
Answer: The absolute lethal dose was 500 mg/kg.

Question: And the “efficacy in bronchial asthma” value (bronchial asthma)?
Answer: The value was “inefficient”.

Question: And the “hypotensive activity of histamine” value [11]?
Answer: Its value is “prevents hypotensive activity”.

Question: What about the “influence on general state and behaviour, peripheral blood, biochemical characteristics of blood and urina” value [12, 21] of the same compound?
Answer: The value was “no essential influence”.

Question: What about the “pathomorphological changes in internal organs” value [12, 21] of the same compound?
Answer: The value was “no pathomorphological changes in internal organs”.

Question: What about the “tolerance of repeated administration” value ([12]; relatively high doses) of the same compound?
Answer: The value was “well tolerated by the test animals”.

Question: What about the “reduction of foot edema of hind limb, formalin” value [13] of the same compound?
Answer: Its value is “more than 2 times”.

Question: What about the LD50 (Acute toxicity in rats) of the same compound?
Answer: Its LD50 is 440 mg/kg.

Question: What about the LD50 (Acute toxicity in mice; iv) of the same compound?
Answer: Its LD50 is 62 mg/kg.

Question: What about the LD50 (Acute toxicity in mice; po) of the same compound?
Answer: The LD50 was 370 mg/kg.

Question: What about the “curing action in allergic ophthalmic diseases” value ([14]; per os, one tablet of 0.025 g 3 to 4 times per day) of the same compound?
Answer: The value was “satisfactory curing action”.

Question: And the “therapeutic effect with corticosteroids” value ([14]; simultaneous administration of corticosteroids (dexamethazone))?
Answer: The value was “therapeutic effect was enhanced”.

Question: What about the anti-inflammation effect [15] of the same compound?
Answer: The anti-inflammation effect was “pronounced anti-inflammationeffect”.

Question: What about the “anti-inflammation effect relative to dimedrol” value [15] of the same compound?
Answer: The value was “superior over dimedrol”.

Question: And the “efficacy in allergic diseases” value (allergic diseases; acute and chronic urticaria, hay fever, vasomotor rhinitis, Quincke's oedema, itching dermatosis, chronic eczema, polysyndromic phenomena of intolerance)?
Answer: Its value is “highly efficient”.

Question: And the “efficacy in patients with developed adaptation to other anti-histamine medicines” value (allergic diseases; human, in vivo)?
Answer: The value was “efficient”.

Question: And the “time to better condition of patients (dermal eruptions and itching reduced)” value (allergic diseases; per os, 3 to 6 tablets (0.025 g each) per day)?
Answer: The value was 3 days.

Question: What about the tolerability (Clinical tolerability; human, in vivo) of the same compound?
Answer: The tolerability was “well tolerated”.

Question: And the “"seductive" effect” value (Clinical tolerability; patients over 60 years of age or weakened by accompanying serious diseases)?
Answer: The value was “some cases”.

Question: And the discomfort (Clinical tolerability; patients with accompanying serious diseases of the digestive tract)?
Answer: Its discomfort is “short-time phenomena of discomfort are possible”.

Question: What about the “time to disappearance of discomfort” value (Clinical tolerability; patients with accompanying serious diseases of the digestive tract, without cancelling or reducing dosage) of the same compound?
Answer: Its value is 1 to 2 days.

Question: What about the “influence on bronchospasm caused by acetylcholine” value [16] of the same compound?
Answer: Its value is “only a slight influence”.

Question: What about the antiallergic effect [17] of the same compound?
Answer: The antiallergic effect was “clearly pronounced antiallergic effect”.

Question: And the “signs of anaphylactic response / latent period” value [17]?
Answer: Its value is “increasing the latent period, or completely inhibiting signs of anaphylactic response”.

Question: What about the “influence on bronchospasm caused by serotonine” value [18] of the same compound?
Answer: Its value is “only a slight influence”.

Question: And the “ophthalmic response (hyperemia and chemosis)” value ([1]; into the stomach, 50 mg/kg, 2% solution of histamine)?
Answer: The value was “prevents or substantially reduces ophthalmic response”.

Question: And the “reduction of foot edema of hind limb, dextrane” value [19]?
Answer: Its value is “more than 2 times”.

Question: Which “dose resulting in the death of half of the animals” value [20] does the source give for `CC(CN1c2ccccc2Sc2ccccc21)N(C)C` (centres unmarked) [diprasine (promethasine), promethasine] here?
Answer: The value was 25 mg/kg.
